Laboratory results from patent US4604378A, “Basic V1 -vasopressin antagonists” (SmithKline Beckman Corporation, priority 1984, dated 1986).
*1 amine or outer side, *2 acyl side, *3 side chain or, on linkers, in order; H or OH if unused. Where a SMILES comes first, the peptide text is derived from it. Bridges are numbered along the chain shown (N, C = ends). [ ]: non-standard residue; d: D form. The star is where a group is joined. X1 = CC(C)(CC(=O)[*:1])S[*:2]; NH(CH2)4NH2 = NCCCCN*; Mpa = O=C(O)CCS

What was measured:
[1] = molecular target: T1, V2 -vasopressin receptors (Sus scrofa, UniProt P32307); experiment: V2-vasopressin receptor binding, inhibition of 3H-LVP binding, medullary pig kidney tissue
T1 construct: Medullary pig kidney tissue; from tissue; host or cells: medullary pig (hog) kidney tissue
Description: (§1) Antagonistic activity at the V1 -vasopressin receptors is determined in a protocol which measures the reversal of the vasopressin-induced contraction of rat thoracic aorta tissue. This is expressed as KB (nM) in the table below. Such anti-pressor activity is confirmed in a similar in vitro protocol using binding to the plasma membranes of rat liver. V2 -vasopressin antagonism is determined as receptor binding ability measured by inhibition of 3H-LVP binding (KB as nM), by inhibition of adenylate cyclase activation by vasopressin in the medullary tissue of hog kidneys (Ki as nM) or in vivo in the hydropenic rat protocol (ED300 μg/kg. These procedures are described in the literature: F. Stassen et al., J. Pharmacology and Experimental Therapeutics, 223 50 (1982); F. Stassen et al., lst International Conference on Diuretics, Miami, Fla., Mar. (1984). Antagonistic activity at oxytocin receptors is determined in the isolated rat uterus protocol: W. Sawyer, et al., Endocrinology 106 81 (1979); P. Melin, et al., J. of Endocrinology 88 173 (1981).
^a Medullary pig kidney tissue, […]

oxytocin receptors = molecular target: T2, oxytocin receptors (Rattus norvegicus, UniProt P70536); experiment: Isolated rat uterus protocol, oxytocin antagonism; assay type: cell-based; details: read-out: Rat OXT KB
T2 construct: Rat uterus; from tissue; host or cells: isolated rat uterus
T2 sequence (P70536 1-388): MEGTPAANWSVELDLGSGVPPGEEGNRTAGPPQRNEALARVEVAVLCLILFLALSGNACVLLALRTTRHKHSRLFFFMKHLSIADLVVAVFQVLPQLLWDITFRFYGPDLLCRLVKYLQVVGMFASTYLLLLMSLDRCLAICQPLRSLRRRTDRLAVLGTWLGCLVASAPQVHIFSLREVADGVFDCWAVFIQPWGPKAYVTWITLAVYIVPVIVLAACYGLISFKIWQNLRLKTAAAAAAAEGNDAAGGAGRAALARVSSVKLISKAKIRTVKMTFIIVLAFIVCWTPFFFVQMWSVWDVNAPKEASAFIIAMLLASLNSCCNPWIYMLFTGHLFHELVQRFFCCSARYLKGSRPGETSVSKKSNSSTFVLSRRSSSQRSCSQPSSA
Description: as §1

[2] = molecular target: T3, V1 -vasopressin receptors (Rattus norvegicus, UniProt P30560); experiment: Reversal of vasopressin-induced contraction of rat thoracic aorta tissue; assay type: cell-based; details: rat aortic ring tissue
T3 construct: Rat liver membrane; from tissue; host or cells: rat liver plasma membranes
Description: as §1
^c Rat aortic ring tissue, […]

T1 sequence (P32307 whole entry): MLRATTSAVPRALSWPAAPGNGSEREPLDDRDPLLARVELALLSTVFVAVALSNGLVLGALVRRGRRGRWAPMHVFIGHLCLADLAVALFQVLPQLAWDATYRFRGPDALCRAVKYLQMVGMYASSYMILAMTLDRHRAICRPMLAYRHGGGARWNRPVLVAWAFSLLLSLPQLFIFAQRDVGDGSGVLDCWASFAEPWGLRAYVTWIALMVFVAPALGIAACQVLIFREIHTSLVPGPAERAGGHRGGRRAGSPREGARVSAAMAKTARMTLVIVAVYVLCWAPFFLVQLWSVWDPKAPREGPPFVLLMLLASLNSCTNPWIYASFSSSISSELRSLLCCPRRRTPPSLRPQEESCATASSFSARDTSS
T3 sequence (P30560 whole entry): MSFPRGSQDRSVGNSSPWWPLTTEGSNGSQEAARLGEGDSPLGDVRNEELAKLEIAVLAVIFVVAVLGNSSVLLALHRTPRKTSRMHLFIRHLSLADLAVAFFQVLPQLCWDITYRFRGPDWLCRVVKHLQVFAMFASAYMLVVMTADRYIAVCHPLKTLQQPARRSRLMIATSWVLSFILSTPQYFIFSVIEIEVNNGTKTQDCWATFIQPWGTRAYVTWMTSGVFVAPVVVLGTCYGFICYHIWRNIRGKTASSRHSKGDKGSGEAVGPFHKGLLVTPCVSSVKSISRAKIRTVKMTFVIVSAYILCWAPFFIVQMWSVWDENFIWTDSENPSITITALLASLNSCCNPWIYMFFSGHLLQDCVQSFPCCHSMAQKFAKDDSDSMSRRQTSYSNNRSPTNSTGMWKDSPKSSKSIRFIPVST

Kb [1] [nM]	Kb (oxytocin receptors) [nM]	Kb [2] [nM]	SMILES
5700	1.6	–	CCOc1ccc(C[C@H]2NC(=O)CCSSC[C@@H](C(=O)N3CCC[C@H]3C(=O)NCCCCN)NC(=O)[C@H](CC(N)=O)NC(=O)[C@H]([C@@H](C)O)NC(=O)[C@H]([C@@H](C)CC)NC2=O)cc1 [C] ([Mpa][dY](Et)ITNCP-{NH(CH2)4NH2}; disulfide 1-6)
8600	5.91	1.21	COc1ccc(C[C@@H]2NC(=O)CC(C)(C)SSC[C@@H](C(=O)N3CCC[C@H]3C(=O)NCCCCN)NC(=O)[C@H](CC(N)=O)NC(=O)[C@H](CCC(N)=O)NC(=O)[C@H](Cc3ccccc3)NC2=O)cc1 [A] (Y(Me)FQNCP-{NH(CH2)4NH2}; linker N-5 via X1)
1600	11.4	–	CCOc1ccc(C[C@@H]2NC(=O)CCSSC[C@@H](C(=O)N[C@@H](CCCNC(=N)N)C(N)=O)NC(=O)[C@H](CC(N)=O)NC(=O)[C@H]([C@@H](C)O)NC(=O)[C@H]([C@@H](C)CC)NC2=O)cc1 [E] ([Mpa]Y(Et)ITNCR-NH2; disulfide 1-6)
4100	17.7	–	CCOc1ccc(C[C@@H]2NC(=O)CCSSC[C@@H](C(=O)N[C@@H](CCCNC(=N)N)C(=O)NCC(N)=O)NC(=O)[C@H](CC(N)=O)NC(=O)[C@H]([C@@H](C)O)NC(=O)[C@H]([C@@H](C)CC)NC2=O)cc1 [D] ([Mpa]Y(Et)ITNCRG-NH2; disulfide 1-6)
